pIC50: −log10 of the molar value. Activity calls are given as the source filed them. No cut-off for these calls is given here.
Columns and labels:
[1] = tested on: HT-1080; test: Antiproliferative activity against human HT-1080 cells assessed as inhibition of cell growth incubated for 72 hrs by MTT assay; format: functional, cell-based; conditions: HT-1080, 72 h
[2] = tested on: HT-1080; test: HyT activity at GPX4/E3 ligase in human HT-1080 cells assessed as degradation of GPX4 protein at 0.05 uM incubated for 24 hrs by Western blotting analysis relative to control; format: cell-based
[3] = tested on: HT-1080; test: HyT activity at GPX4/E3 ligase in human HT-1080 cells assessed as degradation of GPX4 protein at 0.2 uM incubated for 24 hrs by Western blotting analysis relative to control; format: cell-based
[4] = tested on: HT-1080; test: HyT activity at GPX4/E3 ligase in human HT-1080 cells assessed as degradation of GPX4 protein incubated for 24 hrs by Western blotting analysis; format: cell-based
[5] = HyT activity at GPX4/E3 ligase in human HT-1080 cells assessed as degradation of GPX4 protein by measuring degradation concentration incubated for 24 hrs by Western blotting analysis; format: cell-based; conditions: HT-1080, 24 h
[6] = tested on: HT-1080; test: HyT activity at GPX4/E3 ligase in human HT-1080 cells assessed as degradation of GPX4 protein at 0.05 uM incubated for 7 hrs by Western blotting analysis; format: cell-based
[7] = tested on: HT-1080; test: HyT activity at GPX4/E3 ligase in human HT-1080 cells assessed as degradation of GPX4 protein at 0.05 uM incubated for 12 hrs by Western blotting analysis relative to control; format: cell-based
[8] = tested on: HT-1080; test: HyT activity at GPX4/E3 ligase in human HT-1080 cells assessed as degradation of GPX4 protein at 0.05 uM incubated for 20 hrs by Western blotting analysis; format: cell-based
[9] = tested on: HT-1080; test: HyT activity at GPX4/E3 ligase in human HT-1080 cells assessed as degradation of GPX4 protein at 0.05 uM by Western blotting analysis; format: cell-based; conditions: TDE = time-dependent effect
[10] = tested on: HT-1080; test: HyT activity at GPX4/E3 ligase in human HT-1080 cells assessed as degradation of GPX4 protein at 0.05 uM measured after 4 hrs in presence of cycloheximide by Western blotting analysis; format: cell-based
[11] = tested on: HT-1080; test: HyT activity at GPX4/E3 ligase in human HT-1080 cells assessed as degradation of GPX4 protein at 0.05 uM in presence of cycloheximide by Western blotting analysis; format: cell-based; conditions: TDE = time-dependent effect
[12] = tested on: HT-1080; test: HyT activity at GPX4/E3 ligase in human HT-1080 cells assessed as degradation of GPX4 protein at 0.05 uM incubated for 12 hr in presence of MG132 by Western blotting analysis; format: cell-based
[13] = tested on: HT-1080; test: HyT activity at GPX4/E3 ligase in human HT-1080 cells assessed as degradation of GPX4 protein at 0.05 uM incubated for 12 hr in presence of chloroquine by Western blotting analysis; format: cell-based
[14] = tested on: MDA-MB-231; test: Antiproliferative activity against human MDA-MB-231 cells assessed as inhibition of cell growth incubated for 72 hrs by MTT assay; format: functional, cell-based; conditions: MDA-MB-231, 72 h
[15] = tested on: 786-0; test: Antiproliferative activity against human 786-0 cells assessed as inhibition of cell growth incubated for 72 hrs by MTT assay; format: functional, cell-based; conditions: 786-0, 72 h
[16] = tested on: OS-RC-2; test: Antiproliferative activity against human OS-RC-2 cells assessed as inhibition of cell growth incubated for 72 hrs by MTT assay; format: functional, cell-based; conditions: OS-RC-2, 72 h
[17] = tested on: MDA-MB-231; test: Antiproliferative activity against human MDA-MB-231 cells assessed as fold increase in inhibition of cell growth incubated for 72 hrs by MTT assay relative to RSL3; format: functional
[18] = tested on: HT-1080; test: Induction of ferroptosis in human HT-1080 cells assessed as increase in lipid peroxidation at 0.2 to 0.5 uM incubated for 4 hrs by C11 BODIPY 581/591 dye based flow cytometry; format: functional, cell-based; conditions: dose 0.2-0.5 µM
[19] = tested on: HT-1080; test: Induction of ferroptosis in human HT-1080 cells assessed as increase in ROS production at 0.2 to 0.5 uM incubated for 4 hrs by DCFH-DA dye based flow cytometry; format: functional, cell-based; conditions: dose 0.2-0.5 µM
[20] = tested on: HT-1080; test: Induction of ferroptosis in human HT-1080 cells assessed as increase in lipid peroxidation at 0.2 to 0.5 uM incubated for 4 hrs in presence of ferrostatin-1 by C11 BODIPY 581/591 dye based flow cytometry; format: functional, cell-based; conditions: dose 0.2-0.5 µM
[21] = tested on: HT-1080; test: Induction of ferroptosis in human HT-1080 cells assessed as increase in ROS production at 0.2 to 0.5 uM incubated for 4 hrs in presence of ferrostatin-1 by DCFH-DA dye based flow cytometry; format: functional, cell-based; conditions: dose 0.2-0.5 µM
[22] = tested on: HT-1080; test: HyT activity at GPX4/E3 ligase in human HT-1080 cells assessed as degradation of GPX4 protein at 0.05 uM incubated for 12 hr by Western blotting analysis; format: cell-based

## COC(=O)[C@H]1Cc2c([nH]c3ccccc23)[C@H](c2ccc(C(=O)NCCOCCOCCOCCNC(=O)CC34CC5CC(CC(C5)C3)C4)cc2)N1C(=O)CCl
[1]
  pIC50: 6.30

## COC(=O)[C@H]1Cc2c([nH]c3ccccc23)[C@H](c2ccc(C(=O)N3CCN(CCCCCCCCNC(=O)CC45CC6CC(CC(C6)C4)C5)CC3)cc2)N1C(=O)CCl
[1]
  pIC50: 7.39
[2]
  Activity: 35%
[3]
  Activity: 58%

## COC(=O)[C@H]1Cc2c([nH]c3ccccc23)[C@H](c2ccc(C(=O)NCCCCCCCNC(=O)CC34CC5CC(CC(C5)C3)C4)cc2)N1C(=O)CCl
[1]
  pIC50: 7.62
[2]
  Activity: 47%
[3]
  Activity: 78%
[4]
  Activity: Dose-Dependent Effect
[5]
  DC50: 19 nM
[6]
  Activity: Active
[7]
  Activity: 50%
[8]
  Activity: Active
[9]
  Activity: Tde
[10]
  Activity: Active
[11]
  Activity: Tde
[12]
  Activity: inactive
[13]
  Activity: inactive
[14]
  pIC50: 7.49
[15]
  pIC50: 7.34
[16]
  pIC50: 7.14
[17]
  fold change (FC): 4
[18]
  Activity: Active
[19]
  Activity: Active
[20]
  Activity: inactive
[21]
  Activity: inactive

## COC(=O)[C@H]1Cc2c([nH]c3ccccc23)[C@H](c2ccc(C(=O)NCCCCCCCNC(C)=O)cc2)N1C(=O)CCl
[1]
  pIC50: 6.42
[2]
  Activity: 5%
[3]
  Activity: 6%

## COC(=O)[C@H]1Cc2c([nH]c3ccccc23)[C@H](c2ccc(C(=O)NCCCCCNC(=O)CC34CC5CC(CC(C5)C3)C4)cc2)N1C(=O)CCl
[1]
  pIC50: 7.19
[2]
  Activity: 20%
[3]
  Activity: 38%

## COC(=O)[C@H]1Cc2c([nH]c3ccccc23)[C@H](c2ccc(C(=O)NCCOCCOCCNC(=O)CC34CC5CC(CC(C5)C3)C4)cc2)N1C(=O)CCl
[1]
  pIC50: 7.19

## COC(=O)[C@H]1Cc2c([nH]c3ccccc23)[C@H](c2ccc(C(=O)NCCCCNC(=O)CC34CC5CC(CC(C5)C3)C4)cc2)N1C(=O)CCl
[1]
  pIC50: 6.91
[2]
  Activity: 15%
[3]
  Activity: 37%

## COC(=O)c1ccc([C@H]2c3[nH]c4ccccc4c3C[C@H](C(=O)OC)N2C(=O)CCl)cc1
[1]
  pIC50: 7.05
[2]
  Activity: 21%
[3]
  Activity: 39%
[22]
  Activity: Active
[14]
  pIC50: 6.89
[15]
  pIC50: 7.33
[16]
  pIC50: 7.09

## COC(=O)[C@H]1Cc2c([nH]c3ccccc23)[C@H](c2ccc(C(=O)N3CCN(CCCCNC(=O)CC45CC6CC(CC(C6)C4)C5)CC3)cc2)N1C(=O)CCl
[1]
  pIC50: 6.70

## COC(=O)[C@H]1Cc2c([nH]c3ccccc23)[C@H](c2ccc(C(=O)NCCCCCCCCCCNC(=O)CC34CC5CC(CC(C5)C3)C4)cc2)N1C(=O)CCl
[1]
  pIC50: 7.44
[2]
  Activity: 35%
[3]
  Activity: 72%

## COC(=O)[C@H]1Cc2c([nH]c3ccccc23)[C@H](c2ccc(C(=O)N3CCN(CCCCCCNC(=O)CC45CC6CC(CC(C6)C4)C5)CC3)cc2)N1C(=O)CCl
[1]
  pIC50: 7.52
[2]
  Activity: 44%
[3]
  Activity: 70%

## COC(=O)[C@H]1Cc2c([nH]c3ccccc23)[C@H](c2ccc(C(=O)NCCCCCCNC(=O)CC34CC5CC(CC(C5)C3)C4)cc2)N1C(=O)CCl
[1]
  pIC50: 7.55
[2]
  Activity: 44%
[3]
  Activity: 59%

## COC(=O)[C@H]1Cc2c([nH]c3ccccc23)[C@H](c2ccc(C(=O)NCCOCCNC(=O)CC34CC5CC(CC(C5)C3)C4)cc2)N1C(=O)CCl
[1]
  pIC50: 6.92

## COC(=O)[C@H]1Cc2c([nH]c3ccccc23)[C@H](c2ccc(C(=O)NCCNC(=O)CC34CC5CC(CC(C5)C3)C4)cc2)N1C(=O)CCl
[1]
  pIC50: 7.24
[2]
  Activity: 33%
[3]
  Activity: 52%

## COC(=O)[C@H]1Cc2c([nH]c3ccccc23)[C@H](c2ccc(C(=O)NCCCCCCCCNC(=O)CC34CC5CC(CC(C5)C3)C4)cc2)N1C(=O)CCl
[1]
  pIC50: 6.79
[2]
  Activity: 15%
[3]
  Activity: 31%

## COC(=O)[C@H]1Cc2c([nH]c3ccccc23)[C@H](c2ccc(C(=O)N3CCN(CCNC(=O)CC45CC6CC(CC(C6)C4)C5)CC3)cc2)N1C(=O)CCl
[1]
  pIC50: 7.15

— ChEMBL document CHEMBL5614389, “Design, synthesis, and biological evaluation of RSL3-based GPX4 degraders with hydrophobic tags” (Eur J Med Chem, 2024)
